Laboratory results taken from ChEMBL document CHEMBL3085700 (J Med Chem, 2013).
Active and inactive are the calls of the source. The rule behind the calls is not given here.

Columns and labels:
[1] = molecular target: T1, Monoglyceride lipase (Mus musculus) (UniProt O35678); test: Inhibition of TAMRA-FP-labeled MAGL in mouse brain membrane at 10 uM after 1 hr by fluorescent gel scanning assay; type: cell membranes
T1 sequence (whole entry): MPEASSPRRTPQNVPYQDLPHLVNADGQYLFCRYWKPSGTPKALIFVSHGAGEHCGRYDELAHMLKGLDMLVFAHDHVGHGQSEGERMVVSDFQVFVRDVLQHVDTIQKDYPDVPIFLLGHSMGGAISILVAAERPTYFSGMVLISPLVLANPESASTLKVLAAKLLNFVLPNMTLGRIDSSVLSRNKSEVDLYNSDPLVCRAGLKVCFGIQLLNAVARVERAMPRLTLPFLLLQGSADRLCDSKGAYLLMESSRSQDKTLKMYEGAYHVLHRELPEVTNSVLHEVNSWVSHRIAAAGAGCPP

[2] = molecular target: T2, Lysophosphatidylserine lipase ABHD12 (Homo sapiens) (UniProt Q8N2K0); test: Inhibition of human ABHD12 overexpressed in HEK293 cells assessed as 2-AG hydrolysis at 1 uM by fluorescent glycerol assay; type: cell-based
T2 sequence (whole entry): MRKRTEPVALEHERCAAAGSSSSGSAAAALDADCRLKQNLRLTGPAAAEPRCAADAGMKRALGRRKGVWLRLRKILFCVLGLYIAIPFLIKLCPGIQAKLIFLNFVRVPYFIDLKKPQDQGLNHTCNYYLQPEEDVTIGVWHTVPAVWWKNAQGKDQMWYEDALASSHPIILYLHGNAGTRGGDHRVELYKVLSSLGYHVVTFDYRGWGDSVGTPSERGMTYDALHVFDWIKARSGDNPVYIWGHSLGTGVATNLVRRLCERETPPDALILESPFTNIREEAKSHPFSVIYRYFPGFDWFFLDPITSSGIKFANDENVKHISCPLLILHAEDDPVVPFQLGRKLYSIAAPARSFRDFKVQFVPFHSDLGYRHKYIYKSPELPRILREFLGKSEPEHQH

[3] = molecular target: T3, Fatty-acid amide hydrolase 1 (Homo sapiens) (UniProt O00519); test: Inhibition of human recombinant FAAH overexpressed in African green monkey COS7 cells using [3H]-anandamide as substrate at 10 to 300 uM preincubated for 10 to 60 mins by liquid scintillation counting analysis; type: cell-based; settings: COS-7
T3 sequence (whole entry): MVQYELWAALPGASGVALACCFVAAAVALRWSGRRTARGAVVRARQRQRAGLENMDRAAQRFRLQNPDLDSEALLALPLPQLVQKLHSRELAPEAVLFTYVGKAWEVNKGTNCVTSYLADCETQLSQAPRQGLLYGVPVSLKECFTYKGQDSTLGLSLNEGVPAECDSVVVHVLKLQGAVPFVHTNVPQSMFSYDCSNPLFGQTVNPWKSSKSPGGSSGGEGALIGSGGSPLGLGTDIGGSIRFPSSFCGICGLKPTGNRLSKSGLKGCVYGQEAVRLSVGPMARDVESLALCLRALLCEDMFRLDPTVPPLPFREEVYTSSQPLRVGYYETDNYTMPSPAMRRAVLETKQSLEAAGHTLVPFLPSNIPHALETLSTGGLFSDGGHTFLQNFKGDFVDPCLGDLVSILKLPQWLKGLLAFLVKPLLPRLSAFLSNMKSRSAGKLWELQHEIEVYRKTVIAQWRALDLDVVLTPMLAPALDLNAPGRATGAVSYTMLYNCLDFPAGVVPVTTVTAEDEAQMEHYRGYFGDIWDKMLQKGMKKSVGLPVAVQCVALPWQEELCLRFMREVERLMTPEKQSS

[4] = molecular target: Cannabinoid receptor 1 (Rattus norvegicus) (UniProt P20272); test: Agonist activity at CB1 receptor in rat cerebellar membranes up to 10 uM incubated for 10 mins prior to testing by [35S]GTPgammaS binding assay; type: functional, cell membranes; settings: Cerebellum, Membrane
Cannabinoid receptor 1 (Rattus norvegicus), sequence (P20272 whole entry): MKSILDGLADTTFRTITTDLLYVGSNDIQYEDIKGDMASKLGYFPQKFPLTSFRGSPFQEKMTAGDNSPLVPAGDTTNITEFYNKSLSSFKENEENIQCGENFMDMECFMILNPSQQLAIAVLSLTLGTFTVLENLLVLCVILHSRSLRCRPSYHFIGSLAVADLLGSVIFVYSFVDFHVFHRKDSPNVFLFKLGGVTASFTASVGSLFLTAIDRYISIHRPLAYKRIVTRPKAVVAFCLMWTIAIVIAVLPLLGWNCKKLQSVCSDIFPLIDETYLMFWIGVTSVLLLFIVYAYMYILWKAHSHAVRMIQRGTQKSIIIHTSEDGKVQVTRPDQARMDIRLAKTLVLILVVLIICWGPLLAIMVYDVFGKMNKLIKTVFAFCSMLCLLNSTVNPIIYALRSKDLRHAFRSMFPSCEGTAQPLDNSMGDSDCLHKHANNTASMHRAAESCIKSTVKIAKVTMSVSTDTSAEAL

[5] = molecular target: T4, Prostaglandin G/H synthase 2 (Homo sapiens) (UniProt P35354); test: Inhibition of human recombinant COX-2 assessed as inhibition of 2-AG cyclooxygenation at 30 uM measured within 10 to 50 secs relative to control
T4 sequence (whole entry): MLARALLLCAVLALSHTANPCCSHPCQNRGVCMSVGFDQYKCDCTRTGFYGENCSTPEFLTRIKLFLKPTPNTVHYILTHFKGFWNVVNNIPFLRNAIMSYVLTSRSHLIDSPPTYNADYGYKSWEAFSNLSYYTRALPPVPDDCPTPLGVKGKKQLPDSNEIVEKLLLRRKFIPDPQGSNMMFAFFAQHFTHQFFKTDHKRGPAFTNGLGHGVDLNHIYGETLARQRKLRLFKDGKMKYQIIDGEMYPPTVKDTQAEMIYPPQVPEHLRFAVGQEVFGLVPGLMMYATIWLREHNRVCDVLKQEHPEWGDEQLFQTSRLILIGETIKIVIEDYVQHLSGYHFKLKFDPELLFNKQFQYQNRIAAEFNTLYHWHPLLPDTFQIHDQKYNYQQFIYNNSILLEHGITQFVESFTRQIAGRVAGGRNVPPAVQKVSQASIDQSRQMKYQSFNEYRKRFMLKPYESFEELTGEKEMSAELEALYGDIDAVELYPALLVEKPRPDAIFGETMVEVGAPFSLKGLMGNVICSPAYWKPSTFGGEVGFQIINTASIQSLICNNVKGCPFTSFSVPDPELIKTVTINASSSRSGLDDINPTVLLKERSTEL

[6] = molecular target: T5, Fatty-acid amide hydrolase 1 (Mus musculus) (UniProt O08914); test: Inhibition of TAMRA-FP-labeled FAAH in mouse brain membrane at 1 uM after 1 hr by fluorescent gel scanning assay; type: cell membranes
T5 sequence (whole entry): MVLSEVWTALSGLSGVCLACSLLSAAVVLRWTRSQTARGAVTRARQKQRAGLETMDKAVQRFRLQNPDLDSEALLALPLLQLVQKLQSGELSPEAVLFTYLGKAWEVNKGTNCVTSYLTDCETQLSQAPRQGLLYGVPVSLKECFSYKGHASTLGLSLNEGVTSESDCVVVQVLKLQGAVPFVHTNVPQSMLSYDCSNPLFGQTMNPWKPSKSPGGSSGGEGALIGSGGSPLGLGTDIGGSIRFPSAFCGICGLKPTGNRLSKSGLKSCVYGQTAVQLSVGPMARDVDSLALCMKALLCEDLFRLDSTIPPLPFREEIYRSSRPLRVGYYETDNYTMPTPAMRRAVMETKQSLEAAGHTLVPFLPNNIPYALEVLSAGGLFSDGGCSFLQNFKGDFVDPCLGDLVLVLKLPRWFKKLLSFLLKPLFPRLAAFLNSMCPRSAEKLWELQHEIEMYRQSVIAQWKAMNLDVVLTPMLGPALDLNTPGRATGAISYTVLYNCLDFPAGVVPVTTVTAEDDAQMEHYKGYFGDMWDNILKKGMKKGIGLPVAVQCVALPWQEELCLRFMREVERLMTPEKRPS

[7] = molecular target: T3, Fatty-acid amide hydrolase 1 (Homo sapiens); test: Reversible inhibition of human recombinant FAAH overexpressed in African green monkey COS7 cells using […] as substrate assessed as recovery of enzyme activity at 20 x IC50 preincubated for 60 mins followed by 500 fold dilution measured after 10 mins by HPLC analysis; type: cell-based; settings: COS-7
[8] = molecular target: T4, Prostaglandin G/H synthase 2 (Homo sapiens); test: Inhibition of human recombinant COX-2 using arachidonic acid as substrate assessed as oxygen consumption at 10 uM measured within 10 to 50 secs relative to control

inhibition [1]: inactive | inhibition [2]: inactive | inhibition [3]: Active | Activity [4]: inactive | inhibition [5]: 20% | inhibition [6]: Active | inhibition [7]: Active | inhibition [8]: 20%
Compound: COc1nn([C@@H](C)c2ccc(CC(C)C)cc2)c(=O)o1
